Laboratory results reported in ChEMBL document CHEMBL1149621, “The synthesis of 18beta-glycyrrhetinic acid derivatives which have increased antiproliferative and apoptotic effects in leukemia cells” (2007).
The source made the active and inactive calls. The calls are words filed in the database; no cut-off is given here.

Tests used:
HL-60 [1] = experiment: Induction of apoptosis in human HL60 cells at 80 uM after 6 hrs by fluorescence microscopy; assay type: functional
HL-60 [2] = experiment: Antiproliferative activity against human HL60 cells after 72 hrs; assay type: functional; details: HL-60, 72 h
HL-60 [3] = experiment: Induction of apoptosis in human HL60 cells assessed as DNA fragmentation at 80 uM after 6 hrs; assay type: functional, cell-based
HL-60 [4] = experiment: Induction of apoptosis in human HL60 cells assessed as accumulation of cells in subG1 phase at 80 uM after 6 hrs by FACS method; assay type: functional

CC1(C)C(=O)CC[C@]2(C)C3C(=O)C=C4[C@@H]5C[C@](C)(C(=O)O)CC[C@]5(C)CC[C@@]4(C)[C@]3(C)CC[C@@H]12 (stereo partly drawn)
Activity (HL-60 [1]): 28.5% | GI50 (HL-60 [2]): 59.6 µM

CC(=O)O/N=C1\CC[C@]2(C)C3C(=O)C=C4[C@@H]5C[C@](C)(C(=O)O)CC[C@]5(C)CC[C@@]4(C)[C@]3(C)CC[C@H]2C1(C)C (stereo partly drawn)
Activity (HL-60 [1]): 19.1% | GI50 (HL-60 [2]): 58.8 µM

CCCO/N=C1\CC[C@]2(C)C3C(=O)C=C4[C@@H]5C[C@](C)(C(=O)OC)CC[C@]5(C)CC[C@@]4(C)[C@]3(C)CC[C@H]2C1(C)C (stereo partly drawn)
Activity (HL-60 [1]): 4.9% | GI50 (HL-60 [2]): 19 µM

CC1(C)[C@@H](O)CC[C@]2(C)C3C(=O)C=C4[C@@H]5C[C@](C)(C(=O)O)CC[C@]5(C)CC[C@@]4(C)[C@]3(C)CC[C@@H]12 (stereo partly drawn)
Activity (HL-60 [1]): 24.9% | GI50 (HL-60 [2]): 63.2 µM | Activity (HL-60 [3]): inactive | Activity (HL-60 [4]): 12.7%

CCC(=O)O/N=C1\CC[C@]2(C)C3C(=O)C=C4[C@@H]5C[C@](C)(C(=O)O)CC[C@]5(C)CC[C@@]4(C)[C@]3(C)CC[C@H]2C1(C)C (stereo partly drawn)
Activity (HL-60 [1]): 27.7% | GI50 (HL-60 [2]): 57.7 µM

CCO/N=C1\CC[C@]2(C)C3C(=O)C=C4[C@@H]5C[C@](C)(C(=O)OC)CC[C@]5(C)CC[C@@]4(C)[C@]3(C)CC[C@H]2C1(C)C (stereo partly drawn)
Activity (HL-60 [1]): 8.6% | GI50 (HL-60 [2]): 19.1 µM

CO/N=C1\CC[C@]2(C)C3C(=O)C=C4[C@@H]5C[C@](C)(C(=O)O)CC[C@]5(C)CC[C@@]4(C)[C@]3(C)CC[C@H]2C1(C)C (stereo partly drawn)
Activity (HL-60 [1]): 60.2% | GI50 (HL-60 [2]): 36.1 µM | Activity (HL-60 [3]): Active | Activity (HL-60 [4]): 70.9%

CC1(C)/C(=N/O)CC[C@]2(C)C3C(=O)C=C4[C@@H]5C[C@](C)(C(=O)O)CC[C@]5(C)CC[C@@]4(C)[C@]3(C)CC[C@@H]12 (stereo partly drawn)
Activity (HL-60 [1]): 24.5% | GI50 (HL-60 [2]): 63 µM

CCCO/N=C1\CC[C@]2(C)C3C(=O)C=C4[C@@H]5C[C@](C)(C(=O)O)CC[C@]5(C)CC[C@@]4(C)[C@]3(C)CC[C@H]2C1(C)C (stereo partly drawn)
Activity (HL-60 [1]): 87.3% | GI50 (HL-60 [2]): 20.6 µM | Activity (HL-60 [3]): Active | Activity (HL-60 [4]): 80.3%

CCO/N=C1\CC[C@]2(C)C3C(=O)C=C4[C@@H]5C[C@](C)(C(=O)O)CC[C@]5(C)CC[C@@]4(C)[C@]3(C)CC[C@H]2C1(C)C (stereo partly drawn)
Activity (HL-60 [1]): 59.7% | GI50 (HL-60 [2]): 24.4 µM | Activity (HL-60 [3]): Active | Activity (HL-60 [4]): 68.7%
